{"source": "patent US20210186972A1", "about": "“FORMULATIONS AND METHODS FOR THE PREVENTION AND TREATMENT OF TUMOR METASTASIS AND TUMORIGENESIS” (THE UNITED STATES OF AMERICA, AS REPRESENTED BY THE …, priority 2018, published 2021)", "key": {"[1]": {"tested_on": "normal mouse hepatocytes", "test": "Nucleolar volume by EM in normal liver tissue", "type": "in vivo", "details": "treated normal mouse hepatocytes", "procedure": "FIGS. 49A-49C are graphs showing quantitative evaluation of the EM images of FIG. 48.\nThe nucleolar disruption was reversible within 48 hours upon withdrawal of metarrestin (FIG. 47). Similar disruptions were observed among other treated cell lines, including PANC1 and PC3M cells (FIG. 48), primary tumor, and liver metastatic tissues in the PANC1 xenograft model (FIG. 21, right panels). […] The segregation of the nucleolar compartments observed by EM is believed to correspond to the nucleolar capping structures detected by immunofluorescence of nucleolar proteins (FIGS. 21A-21C, 23, and 50). The coupling of nucleolar segregation with PNC loss was confirmed across several cell lines by immunolabeling with antibodies against the nucleolar Pol I transcription initiation factors, UBF (upstream binding transcription factor) (FIGS. 23 and 50), or Pol I polymerase, RPA194 (FIG. 51). Factors involved in ribosome maturation, such as fibrillarin or NOPP140 (FIGS. 51 and 52) were similarly reorganized. In contrast, UBF distribution was not changed when the normal human fibroblast GM02153 cell line was treated with metarrestin at the same concentration (FIG. 53)."}, "[2]": {"tested_on": "eEF1A", "test": "Western blot of total eEF1A", "type": "cell-based", "details": "1 μM, 24 hours"}, "[3]": {"tested_on": "NSG PANC1 mice", "test": "Orthotopic pancreatic cancer metastasis model, daily IP treatment", "type": "in vivo", "procedure": "Because pancreatic cancer patients suffer particular high mortality from metastasis, the in vivo efficacy of metarrestin against metastasis in an orthotopic pancreatic cancer metastasis model was evaluated. The 3D PANC1 cell spheres model, deployed in NOD/interleukin 2 receptor common gamma chain (Il2rγ)^null (NSG) PANC-1 mice (see Suemizu et al., “Identification of a key molecular regulator of liver metastasis in human pancreatic carcinoma using a novel quantitative model of metastasis in NOD/SCID/gammacnull (NOG) mice.” Int. J. Oncol., (31): 741-51 (2007), incorporated herein in its entirety), recapitulates human cancer progression and metastatic phenotype of the disease without the limitations of early death due to complications of local invasion, such as gastric outlet obstruction or impingement of the common bile duct. Sixty thousand 3D luciferase-expressing PANC1-luc cell spheres were injected orthotopically into the pancreas of NSG mice. […] By 8 weeks, macrometastasis on the liver surface were visible.\nFour weeks after inoculation, mice were treated once daily with metarrestin (5 mg/kg or 25 mg/kg) or vehicle via IP injections, continuing for six weeks. […] The treatment was well-tolerated, and animals maintained their body weight (FIG. 11).\nTo determine whether PNCs in treated animals were impacted by metarrestin, PNC prevalence in primary tumors and metastatic lesions from control and metarrestin-treated animals (25 mg/kg) were examined 12 weeks after tumor inoculation. […] PNC prevalence in non-treated animals was higher in these groups of tumors and metastatic lesions than in those harvested at an earlier time (FIG. 6) or in cultured PANC1 cells (FIG. 2), consistent with previous findings that late-stage cancers have higher PNC prevalence.\nPancreatic cancer model: 60,000 luciferase-tagged PANC1 spheres were injected into the pancreas of Nod/IL2gamma (null) mice (obtained from NCI Mouse Repository, Frederick, Md.; on ACUC-approved animal protocol SB-211-2). At 4 weeks after inoculation, mice were treated once daily with metarrestin (5 mg/kg or 25 mg/kg) or vehicle via IP injections, which extended out for 6 more weeks. Mice were injected with luciferin 5 minutes before being sacrificed by CO2 euthanasia. Organs were then individually dissected, subjected to quantitative xenogene imaging, and fixed with 4% non-buffered formaldehyde. Impact of metastatic burden was calculated and graphed as liver and lung/primary tumor ratios based on a five-minute photon count for the liver normalized to liver weight (g), which was then compared to the average photon count per weight (g) of the primary pancreatic tumor of the same animal. This calculation corrects for variations in luciferin injection, mouse heart rate, and perfusion. For overexpression of eEF1A2, 6*10^4 PANC1 3D spheres transduced with eEF1A2 (eEF1A2 OE) were injected into the tail of the pancreas of NSG mice. Mice of both groups were harvested at 6 weeks after implantation and subjected to necropsy. Liver metastasis/mm^2 was calculated as the sum of the […] of the individual metastases. Tumor volume (mm^3) was calculated as (L×W2), where L=length (mm) and W=width (mm). Animal survival was measured from the first day of treatment until death. […]"}, "[4]": {"tested_on": "RPA194 and UBF", "test": "Western blot of RPA194 and UBF", "type": "cell-based", "details": "1 μM, 24 hours, PANC1, PC3M, and HeLa", "procedure": "Western blots were performed according to the manufacturer's protocols (Li-COR). Transfer membrane was from Millipore (cat. no. IPFL00010). The primary antibodies used were phospho-γ H2AX (Upstate 07-164, rabbit, 1:1000); p53 (Santa Cruz Biotechnology sc-6243 rabbit 1:500); UBF (F-9) (Santa Cruz Biotechnology, mouse, 1:500); RPA194 (Santa Cruz Biotechnology, sc-48385, mouse, 1:500); p53BP1 (Novus, NB100-304, rabbit 1:10,000); EF1a (Millipore 05-235, mouse, 1:1000), HA-Tag (C29F4, Cell Signaling, rabbit 1:1000) and actin (Sigma A5060, rabbit, 1:3000, A4700, mouse, 1:1000) as a loading control. LI-COR IRDye secondary antibodies (1:10,000), goat anti-mouse-680RD (926-68070), goat anti-mouse-800CW (926-32210), goat-anti-rabbit-680RD (926-68071), goat-anti-rabbit-800CW (926-32211) were used for visualization. Protein bands were detected using LI-COR Odyssey Image Studio (LI-COR Biosciences).\nPsoralen crosslinks active accessible DNA under UV light without displacing nucleosomes or transcription factors, or changing chromatin states. Psoralen-crosslinked DNA moves slower on agarose gel and can be distinguished from the non-crosslinked DNA by Southern blots. […] To examine the interactions between Pol I transcription factors and rDNA, quantitative ChIP experiments were carried out using primer sets across promoter and coding regions of rDNA (FIG. 29-30E)."}, "[5]": {"tested_on": "PC3M cells", "test": "Cell growth (INCUCYTE confluence), PC3M", "type": "cell-based, human", "text": "The confluence (%) is on the y-axis and the time (in hours) is on the x-axis. The top most line is GM02153-DMSO, the second line from the top is PC3M-DMSO, the third line from the top is GM02153-metarrestin, and the bottom line is PC3M-metarrestin."}, "[6]": {"details": "5 or 25 mg/kg IP once daily for six weeks"}}}
{"smiles": "N=c1c2c(-c3ccccc3)c(-c3ccccc3)n(Cc3ccccc3)c2ncn1[C@H]1CC[C@H](O)CC1", "note": "[metarrestin]", "values": [{"measurement": "Nucleolar volume", "setting": "[1]", "value": "not changed"}, {"measurement": "Total eEF1A protein", "setting": "[2]", "value": "remained similar"}, {"measurement": "Metastatic burden in liver", "setting": "[3]; 25 mg/kg IP once daily for six weeks, vs vehicle, p<0.01", "value": "decrease in metastatic burden"}, {"measurement": "Metastatic burden in lung", "setting": "[3]; 25 mg/kg IP once daily for six weeks, vs vehicle, p<0.05", "value": "decrease in metastatic burden"}, {"measurement": "PNC prevalence in metastatic and primary tumor tissues", "setting": "[3]; 25 mg/kg, 12 weeks after tumor inoculation, p<0.01", "value": "significant reduction of PNC prevalence"}, {"measurement": "Primary tumor weight", "setting": "[3]; [6]", "value": "not significantly changed"}, {"measurement": "Tolerability, body weight", "setting": "[3]; [6]", "value": "well-tolerated"}, {"measurement": "Amounts of Pol I large subunit RPA194 and UBF", "setting": "[4]", "value": "did not change significantly"}, {"measurement": "PC3M cell growth", "setting": "[5]; 0.6 μM, after 24 hours of treatment", "value": "did not affect PC3M or PANC1 cell growth"}, {"measurement": "Cell growth in PC3M cancer cells", "setting": "[5]; 1 μM, extended time, INCUCYTE", "value": "preferentially inhibited cell growth"}]}
